Measurements taken from patent US20180207228A1, “PEPTIDE COMBINATIONS AND USES THEREOF FOR TREATING GRASS ALLERGY” (ALK-Abelló A/S, priority 2015, published 2018).
Where no end group is shown, it is not given here.

Assays:
[1] = test system: release of IFN-γ upon T cell activation; experiment: Fluorospot assay, IFN-γ release (DK1-TCL01, US1-TCL01); assay type: cell-based, human; conditions: head prints TCL-02 DK1; 17 TCL-01 DK1 lines
In short: (§1)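 Grass-allergic donors' CD8-depleted PBMCs were expanded 14 days with natural grass allergens plus IL-2 to give TCL01 lines. These were incubated 20 h at 37° C with single peptides or peptide mixes at 2 μg/ml, and spot-forming cells were counted. Hit: SI≥2, p≤0.05, Poisson ≤0.05, ≥20 SFC/10^6 cells.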

[2] = test system: allergen specific T cells; experiment: T cell proliferation assay (72 h) on donor derived T cell lines (TCL02/TCL03); assay type: cell-based, human; conditions: for Proliferation % donor coverage (TCL-02 DK1): T cell lines TCL-02 DK1, 30 donors, hit criteria SI>=2, CPM>=1000; for Proliferation strength (TCL-02 DK1): T cell lines TCL-02 DK1, strength of response (average relative magnitude)
In short: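 CD8-depleted PBMCs from grass-allergic donors stimulated with natural grass allergen mix (nPhl p 1 0.5 μg/ml) to raise T cell lines; restimulated with irradiated APCs, allergens or PHA-P (0.5 μg/ml) plus rIL-2. Proliferation to overlapping 20-mer and selected 15-mer grass peptides tested with TCL02 (day 24) or TCL03 (day 34).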

[3] = test system: release of IL-5 upon T cell activation; experiment: Fluorospot assay, IL-5 release (DK1-TCL01, US1-TCL01); assay type: cell-based, human; conditions: head prints TCL-02 DK1; text: 25 TCL-01 DK1 lines
In short: as §1

[4] = molecular target: 25 HLA Class II alleles (purified class II MHC molecules); experiment: competitive radiolabelled-peptide binding to purified HLA class II (25 alleles, binder if IC50 <300 nM); worldwide phenotypic coverage of the alleles found to bind

| Measured binding coverage 25 alleles [4] [%] | Molecule | IFN-gamma % donor coverage (TCL-02 DK1) [1] [%] | Proliferation % donor coverage (TCL-02 DK1) [2] [%] | Proliferation strength (TCL-02 DK1) [2] | IL-5-Fluorospotr % donor coverage (TCL-02 DK1) [3] [%] |
| --- | --- | --- | --- | --- | --- |
|  | TSAVGAATGAATAATGGYKV-OH [compound 88] | 0.00 | 0.00 | 0.00 | 0.00 |
|  | TSKLDAAYKLAYKTAEGATP-OH [compound 65] | 4.00 | 30.00 | 5.70 | 4.00 |
|  | VFDDVVPEKYTIGATYAPEE-OH [compound 35] | 0.00 | 13.33 | 0.70 | 0.00 |
|  | VKYEGDTMAEVELREHGSDE-OH [compound 32] | 0.00 | 6.67 | 0.20 | 0.00 |
|  | VPKVTFTVEKGSNEKHLAVL-OH [compound 30] | 0.00 | 3.33 | 0.40 | 0.00 |
|  | VRYTTEGGTKTEAEDVIPEG-OH [compound 12] | 8.00 | 23.33 | 7.00 | 8.00 |
|  | VVAVDIKEKGKDKWIELKES-OH [compound 25] | 8.00 | 20.00 | 1.10 | 4.00 |
|  | WGAIWRIDTPDKLTGPFTVR-OH [compound 11] | 8.00 | 46.67 | 4.80 | 24.00 |
|  | WLDAKSTWYGKPTGAGPKDN-OH [compound 1] | 4.00 | 26.67 | 4.70 | 24.00 |
|  | YASGKVWGQKYFKGNFERLA-OH [compound 58] | 0.00 | 20.00 | 2.40 | 4.00 |
|  | YFKGNFERLAITKGKVDPTD-OH [compound 59] | 0.00 | 30.00 | 3.20 | 0.00 |
|  | YHFDLSGHAFGAMAKKGDEQ-OH [compound 5] | 15.00 | 46.67 | 7.80 | 24.00 |
|  | YIITPTNVSHIQSAVVSGRR-OH [compound 46] | 0.00 | 27.00 | 1.00 | 0.00 |
|  | YLALLVKYAAGDGNIVAVDI-OH [compound 105] | 4.00 | 16.67 | 1.90 | 12.00 |
| 92 | KDKWIELKESWGAIWRIDTP [peptide 210 (Phl p 1, 183)] |  |  |  |  |
| 40 | VRYTTEGGTKTEAEDVIPEG [peptide 212 (Phl p 1, 211)] |  |  |  |  |
| 90 | WGAIWRIDTPDKLTGPFTVR [peptide 211 (Phl p 1, 193)] |  |  |  |  |
| 58 | TEAEDVIPEGWKADTSYESK [peptide 213 (Phl p 1, 221)] |  |  |  |  |
| 47 | WLDAKSTWYGKPTGAGPKDN [peptide 201 (Phl p 1, 18)] |  |  |  |  |
